{
  "source": "PubChem BioAssay AID330",
  "about": "(DTP/NCI, 2004)",
  "test_system": "P388 leukemia ip, CD2F1 mice, survival T/C",
  "experiment": "NCI In Vivo Anticancer Drug Screen. Data for tumor model P388 Leukemia (intraperitoneal) in CD2F1 (CDF1) mice",
  "conditions": "endpoint: median survival time, higher = longer survival",
  "how_it_was_run": "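Mice carrying the transplanted tumor received test compound or vehicle. Survival was recorded in each group, and the value is the treated-group measurement divided by that of the vehicle-treated control group.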",
  "note": "Where “and” joins values, the source holds several entries; their conditions need not be identical. Identical values can stand only once. Inconclusive results and toxic doses are left out. Numbered stars: 1 amine (or outer) side, 2 acyl side, 3 side chain; on linkers, the order of the positions; unused ones are H or OH. Bridge positions count the residues as written; N and C are the ends. Square brackets hold non-standard residues; d marks the D form. Peptide text beside a SMILES is read from it. I, II: the chains in the order shown. Actinocin(1to9) = Cc1c2oc3c(C)ccc(C(=O)[*:2])c3nc-2c(C(=O)[*:1])c(N)c1=O; NMeV = CN[CH](C(=O)O)C(C)C; Aze = O=C(O)[CH]1CCN1; Sar = CNCC(=O)O",
  "data": [
    {"smiles": "CCN(CC)CCNc1c(C)ccc2cccnc12", "values": [
      {"measurement": "T/C", "setting": "dose: 12.5 mg/kg/injection, schedule: Q01DX005 (ip), vehicle: saline", "result": "102 % of control"},
      {"measurement": "T/C", "setting": "dose: 25.0 mg/kg/injection, schedule: Q01DX005 (ip), vehicle: saline", "result": "93 % of control"},
      {"measurement": "T/C", "setting": "dose: 50.0 mg/kg/injection, schedule: Q01DX005 (ip), vehicle: saline", "result": "100 % of control"}
    ]},
    {"smiles": "CN(C)c1ccc(C(=C2C=CC(=[N+](C)C)C=C2)c2ccc(N(C)C)cc2)cc1", "note": "(tested in a mixture with another compound)", "values": [
      {"measurement": "T/C", "setting": "dose: 0.62 mg/kg/injection, schedule: Q01DX009 (ip), vehicle: saline with Tween-80", "result": "122 % of control"},
      {"measurement": "T/C", "setting": "dose: 2.5 mg/kg/injection, schedule: Q01DX009 (ip), vehicle: saline with Tween-80", "result": "120 % of control"}
    ]},
    {"smiles": "C/C(=N\\NC(=S)Nc1ccc(N(C)C)cc1)c1ccccn1", "values": [
      {"measurement": "T/C", "setting": "dose: 50.0 mg/kg/injection, schedule: Q01DX009 (ip), vehicle: saline with Tween-80", "result": "118 % of control"},
      {"measurement": "T/C", "setting": "dose: 100.0 mg/kg/injection, schedule: Q01DX009 (ip), vehicle: saline with Tween-80", "result": "105 % of control"}
    ]},
    {"smiles": "CCCCC(NC(=O)C(CCCC)NC(=O)OCc1ccccc1)C(=O)O", "note": "(stereo unspecified)", "values": [
      {"measurement": "T/C", "setting": "dose: 50.0 mg/kg/injection, schedule: Q01DX005 (ip), vehicle: Klucel (hydroxypropylcellulose) (HPC)", "result": "108 % of control"},
      {"measurement": "T/C", "setting": "dose: 100.0 mg/kg/injection, schedule: Q01DX005 (ip), vehicle: Klucel (hydroxypropylcellulose) (HPC)", "result": "93 % of control"},
      {"measurement": "T/C", "setting": "dose: 200.0 mg/kg/injection, schedule: Q01DX005 (ip), vehicle: Klucel (hydroxypropylcellulose) (HPC)", "result": "95 % of control"}
    ]},
    {"smiles": "COc1cc([C@@H]2c3cc4c(c(O)c3C[C@H]3COC(=O)[C@@H]32)OCO4)cc(OC)c1O", "values": [
      {"measurement": "T/C", "setting": "dose: 0.25 mg/kg/injection, schedule: Q01DX009 (ip), vehicle: suspension in saline", "result": "121 % of control"},
      {"measurement": "T/C", "setting": "dose: 1.0 mg/kg/injection, schedule: Q01DX009 (ip), vehicle: saline", "result": "150 % of control"},
      {"measurement": "T/C", "setting": "dose: 1.0 mg/kg/injection, schedule: Q01DX009 (ip), vehicle: suspension in saline", "result": "99 % of control"}
    ]},
    {"smiles": "c1ccc(-c2c[n+]3ccccc3n2-c2ccccc2)cc1", "values": [
      {"measurement": "T/C", "setting": "dose: 1.56 mg/kg/injection, schedule: Q01DX009 (ip), vehicle: saline", "result": "100 % of control"},
      {"measurement": "T/C", "setting": "dose: 3.12 mg/kg/injection, schedule: Q01DX009 (ip), vehicle: saline", "result": "94 % of control"},
      {"measurement": "T/C", "setting": "dose: 6.25 mg/kg/injection, schedule: Q01DX009 (ip), vehicle: saline", "result": "101 % of control and 92 % of control"}
    ]},
    {"smiles": "CC(=O)OCCN1CCOC(O)(c2cccc(C(F)(F)F)c2)C1", "note": "(stereo unspecified)", "values": [
      {"measurement": "T/C", "setting": "dose: 60.0 mg/kg/injection, schedule: Q01DX005 (ip), vehicle: saline with Tween-80", "result": "115 % of control"},
      {"measurement": "T/C", "setting": "dose: 120.0 mg/kg/injection, schedule: Q01DX005 (ip), vehicle: saline with Tween-80", "result": "108 % of control"},
      {"measurement": "T/C", "setting": "dose: 240.0 mg/kg/injection, schedule: Q01DX005 (ip), vehicle: saline with Tween-80", "result": "113 % of control"}
    ]},
    {"smiles": "Cc1c2oc3c(C)ccc(C(=O)NC4C(=O)NC(C(C)C)C(=O)N5CCCC5C(=O)N(C)CC(=O)N(C)C(C(C)C)C(=O)OC4C)c3nc-2c(C(=O)NC2C(=O)NC(C(C)C)C(=O)N3CCC3C(=O)N(C)CC(=O)N(C)C(C(C)C)C(=O)OC2C)c(N)c1=O", "note": "(stereo unspecified) (I: TV[Aze][Sar][NMeV] / II: TVP[Sar][NMeV]; ester I:1-I:C, II:1-II:C; linker I:N-II:N via Actinocin(1to9); configuration not given here)", "values": [
      {"measurement": "T/C", "setting": "dose: 0.05 mg/kg/injection, schedule: Q01DX009 (ip), vehicle: water", "result": "214 % of control"},
      {"measurement": "T/C", "setting": "dose: 0.08 mg/kg/injection, schedule: Q04DX003 (ip), vehicle: saline", "result": "96 % of control"},
      {"measurement": "T/C", "setting": "dose: 0.15 mg/kg/injection, schedule: Q04DX003 (ip), vehicle: saline", "result": "102 % of control"},
      {"measurement": "T/C", "setting": "dose: 0.3 mg/kg/injection, schedule: Q04DX003 (ip), vehicle: saline", "result": "105 % of control"},
      {"measurement": "T/C", "setting": "dose: 12.5 micrograms/kg/injection, schedule: Q01DX009 (ip), vehicle: saline", "result": "123 % of control"},
      {"measurement": "T/C", "setting": "dose: 12.5 micrograms/kg/injection, schedule: Q01DX009 (ip), vehicle: water", "result": "167 % of control"},
      {"measurement": "T/C", "setting": "dose: 19.4 micrograms/kg/injection, schedule: Q01DX009 (ip), vehicle: saline + alcohol", "result": "150 % of control"},
      {"measurement": "T/C", "setting": "dose: 25.0 micrograms/kg/injection, schedule: Q01DX009 (ip), vehicle: water", "result": "200 % of control"},
      {"measurement": "T/C", "setting": "dose: 32.4 micrograms/kg/injection, schedule: Q01DX009 (ip), vehicle: saline + alcohol", "result": "165 % of control"},
      {"measurement": "T/C", "setting": "dose: 50.0 micrograms/kg/injection, schedule: Q01DX009 (ip), vehicle: saline", "result": "155 % of control"},
      {"measurement": "T/C", "setting": "dose: 50.0 micrograms/kg/injection, schedule: Q01DX009 (ip), vehicle: water", "result": "266 % of control"},
      {"measurement": "T/C", "setting": "dose: 54.0 micrograms/kg/injection, schedule: Q01DX009 (ip), vehicle: saline + alcohol", "result": "177 % of control"},
      {"measurement": "T/C", "setting": "dose: 90.0 micrograms/kg/injection, schedule: Q01DX009 (ip), vehicle: saline + alcohol", "result": "186 % of control"},
      {"measurement": "T/C", "setting": "dose: 100.0 micrograms/kg/injection, schedule: Q01DX009 (ip), vehicle: saline", "result": "171 % of control"},
      {"measurement": "T/C", "setting": "dose: 100.0 micrograms/kg/injection, schedule: Q01DX009 (ip), vehicle: water", "result": "89 % of control"},
      {"measurement": "T/C", "setting": "dose: 150.0 micrograms/kg/injection, schedule: Q01DX009 (ip), vehicle: saline + alcohol", "result": "238 % of control"},
      {"measurement": "T/C", "setting": "dose: 200.0 micrograms/kg/injection, schedule: Q01DX009 (ip), vehicle: saline", "result": "250 % of control"},
      {"measurement": "T/C", "setting": "dose: 250.0 micrograms/kg/injection, schedule: Q01DX009 (ip), vehicle: saline + alcohol", "result": "100 % of control"},
      {"measurement": "T/C", "setting": "dose: 400.0 micrograms/kg/injection, schedule: Q01DX009 (ip), vehicle: saline", "result": "86 % of control"}
    ]},
    {"smiles": "Cc1ccc(N)c(S)c1", "values": [
      {"measurement": "T/C", "setting": "dose: 12.5 mg/kg/injection, schedule: Q01DX009 (ip), vehicle: Klucel (hydroxypropylcellulose) (HPC)", "result": "98 % of control"},
      {"measurement": "T/C", "setting": "dose: 25.0 mg/kg/injection, schedule: Q01DX009 (ip), vehicle: Klucel (hydroxypropylcellulose) (HPC)", "result": "120 % of control"},
      {"measurement": "T/C", "setting": "dose: 50.0 mg/kg/injection, schedule: Q01DX009 (ip), vehicle: Klucel (hydroxypropylcellulose) (HPC)", "result": "117 % of control"}
    ]}
  ]
}
